Columns and labels:
[1] = system: Subjects Having Insomnia Disorder; assay: Example 1: Morning Sleepiness rating (scale 1 to 9); assay type: in vivo, human; details: for Morning Sleepiness score, Mean (SD): Baseline; for Morning Sleepiness score, Treatment difference (vs placebo): change from baseline at Month 6
From the text: In some embodiments, sleep diaries were used to assess sleep parameters reported by subjects (i.e., subjective assessments) including subjective sleep onset latency (sSOL), subjective sleep efficiency (sSE), subjective WASO (sWASO), and subjective total sleep time (sTST). Subjects were instructed to complete the Sleep Diary developed based on the consensus Sleep Diary as described in Carney et al., “The consensus sleep diary: standardizing prospective sleep self-monitoring,” Sleep 2012; 35(2):287-302. In some embodiments, the Sleep Diary was used to assess the subject's global perception of quality of sleep on the previous night with the following question: “How would you rate the quality of your sleep last night?” Subjects rated the quality of their sleep on a scale from 1 to 9, with 1 being extremely poor and 9 being extremely good. In some embodiments, the Sleep Diary was used to assess subjective ratings of morning sleepiness with the following question: “How alert/sleepy do you feel this morning?” Subjects rated their sleepiness/alertness level on a Likert scale from 1 to 9, with 1 being extremely sleepy and 9 being extremely alert.
Treatment period 1 began with the first dose of randomized study medication (placebo, 5 mg of lemborexant, or 10 mg of lemborexant). Subjects completed sleep diaries daily in the morning, within one hour of waketime. The subjects were assessed by a clinician one month, two months, three months, and six months after initiation of Treatment period 1.

[2] = system: Subjects Having Insomnia Disorder; assay: Example 1: Insomnia Severity Index Total Score (Items 1-7); assay type: in vivo, human
From the text: As used herein, the term “Insomnia Severity Index”, abbreviated as “ISI”, is an index calculated using a 7-item, self-report questionnaire assessing the nature, severity, and impact of insomnia (see Bastien, C. H., et al. “Validation of the Insomnia Severity Index as an outcome measure for insomnia research.” Sleep Med. 2001; 2(4): 297-307). The questionnaire evaluates: (1) severity of sleep onset; (2) sleep maintenance; (3) early morning awakening problems; (4) sleep dissatisfaction; (5) interference caused by sleep difficulties with daytime functioning; (6) noticeability of sleep problems by others; and (7) distress caused by the sleep difficulties. A 5-point scale is used to rate each item (0=no problem to 4=very severe problem) yielding a total score from 0 to 28. Total ISI score (items (1)-(7)) and daytime functioning (items (4)-(7)) are analyzed separately.
Month 1 Assessment: Standard safety assessments were performed on the subject. A blood sample was collected for determination of plasma concentration of lemborexant and its metabolites, and the ISI, FSS, PGI-Insomnia, EQ-5D-3L, and eC-SSR were completed.
Month 3 Assessment: All assessments conducted at the Month 1 Assessment were repeated.
Month 6 Assessment: All assessments conducted at the Month 1 Assessment were repeated, and subjects completed the WPAI-GH.

## Cc1ncc(OC[C@@]2(c3cccc(F)c3)C[C@H]2C(=O)Nc2ccc(F)cn2)c(C)n1 [Lemborexant, (1R,2S)-2-(((2,4-dimethylpyrimidin-5-yl)oxy)methyl)-2-(3-fluorophenyl)-N-(5-fluoropyridin-2-yl)cyclopropanecarboxamide]
[1]; 5 mg
  Morning Sleepiness score, Mean (SD): 3.93 (1.35)
  Morning Sleepiness score, Treatment difference (vs placebo): 0.15
[1]; 10 mg
  Morning Sleepiness score, Mean (SD): 3.93 (1.32)
  Morning Sleepiness score, Treatment difference (vs placebo): 0.26
[1]; at 6 months (Table 8)
  morning sleepiness compared with placebo: significantly improved
[2]; 5 mg and 10 mg, at the equivalent timepoint (Tables 6 and 7: daytime functioning and total score)
  insomnia severity index score compared with placebo: greater decrease in insomnia severity index score than subjects treated with placebo
[2]; 5 mg, Month 1
  ISI Total Score (Items 1-7), Mean: 12.6
  ISI Total Score (Items 1-7), Median: 12.0
[2]; 5 mg, Month 3
  ISI Total Score (Items 1-7), Mean: 10.8
  ISI Total Score (Items 1-7), Median: 10.0
[2]; 5 mg, Month 6
  ISI Total Score (Items 1-7), Mean: 9.6
  ISI Total Score (Items 1-7), Median: 9.0
[2]; 5 mg, Study Baseline
  ISI Total Score (Items 1-7), Mean: 19.6
  ISI Total Score (Items 1-7), Median: 19.0
[2]; 5 mg, after 1 Month
  ISI Total Score Change from Study Baseline, Mean: −7.1
  ISI Total Score Change from Study Baseline, Median: −6.0
[2]; 5 mg, after 3 Months
  ISI Total Score Change from Study Baseline, Mean: −8.6
  ISI Total Score Change from Study Baseline, Median: −8.0
[2]; 5 mg, after 6 Months
  ISI Total Score Change from Study Baseline, Mean: −9.9
  ISI Total Score Change from Study Baseline, Median: −10.0
[2]; 5 mg, change from Study Baseline after 1 Month
  ISI Total Score LSM treatment difference: Lemborexant/Placebo: −1.47
[2]; 5 mg, change from Study Baseline after 3 Months
  ISI Total Score LSM treatment difference: Lemborexant/Placebo: −2.02
[2]; 5 mg, change from Study Baseline after 6 Months
  ISI Total Score LSM treatment difference: Lemborexant/Placebo: −2.10
[2]; 10 mg, Month 1
  ISI Total Score (Items 1-7), Mean: 12.0
  ISI Total Score (Items 1-7), Median: 12.0
[2]; 10 mg, Month 3
  ISI Total Score (Items 1-7), Mean: 10.2
  ISI Total Score (Items 1-7), Median: 10.0
[2]; 10 mg, Month 6
  ISI Total Score (Items 1-7), Mean: 9.4
  ISI Total Score (Items 1-7), Median: 9.0
[2]; 10 mg, Study Baseline
  ISI Total Score (Items 1-7), Mean: 19.0
  ISI Total Score (Items 1-7), Median: 19.0
[2]; 10 mg, after 1 Month
  ISI Total Score Change from Study Baseline, Mean: −7.2
  ISI Total Score Change from Study Baseline, Median: −6.0
[2]; 10 mg, after 3 Months
  ISI Total Score Change from Study Baseline, Mean: −8.9
  ISI Total Score Change from Study Baseline, Median: −9.0
[2]; 10 mg, after 6 Months
  ISI Total Score Change from Study Baseline, Mean: −9.8
  ISI Total Score Change from Study Baseline, Median: −9.5
[2]; 10 mg, change from Study Baseline after 1 Month
  ISI Total Score LSM treatment difference: Lemborexant/Placebo: −1.87
[2]; 10 mg, change from Study Baseline after 3 Months
  ISI Total Score LSM treatment difference: Lemborexant/Placebo: −2.57
[2]; 10 mg, change from Study Baseline after 6 Months
  ISI Total Score LSM treatment difference: Lemborexant/Placebo: −2.35

Reference: US20220305012A1, “L[…] TREATING SLEEP ISSUES” (EISAI R&D MANAGEMENT CO., LTD., priority 2019, published 2022)
